Like-named read-outs stand apart in the source and are kept apart here.
Tested on: α7 integrin (LacZ reporter in α7LacZ+/− myoblasts)
Test: qHTS of the LOPAC library and MLSMR (online screen, α7LacZ+/− myoblasts)
Conditions: for activation at 0.307 µM / activation at 1.53 µM / activation at 7.66 µM / activation at 38.3 µM / Emax / EC50: Mus musculus, Myoblast; for activation at 0.307 µM: read-out: Activity at 0.307 uM [%] **; for activation at 1.53 µM: read-out: Activity at 1.530 uM [%] **; for activation at 7.66 µM: read-out: Activity at 7.660 uM [%] **; for activation at 38.3 µM: read-out: Activity at 38.30uM [%] **; for EC50: read-out: Fit LogAC50 (converted)
[1] = 48 h, read-out: Fit Infinite Activity [%]

Row | Structure (SMILES) | activation at 0.307 µM (48 h) [%] | activation at 1.53 µM (48 h) [%] | activation at 7.66 µM (48 h) [%] | activation at 38.3 µM (48 h) [%] | Emax [1] [%] | EC50 [µM] | Emax (read-out: Max Response [%]) [%] | Score | Score (Table 8 Compound data)
1 | CCNC(=O)CSc1nc(-c2ccc(F)cc2)cs1 [Compound 61] | -0.123 | 25.8 | 82.4 | 126 | 136 | 5.01 | 126 |  | 
2 | CC(C)NC(=O)CN1CCN(C(=O)CCl)CC1 [Compound 62] | -21.4 | -18 | 77.9 | 155 | 162 | 7.08 | 155 |  | 
3 | CS(=O)(=O)N(Cc1ccc(C(=O)NC2CCCC2)cc1)c1ccccc1 [Compound 63] | -3.95 | 2.24 | 57.8 | 196 | 199 | 10 | 196 |  | 
4 | C=CCN(CC=C)C(=O)c1ccc(OC2CCN(S(=O)(=O)N(C)C)CC2)cc1 [Compound 64] | -6.4 | 3.46 | 95.1 | 129 | 130 | 5.01 | 129 |  | 
5 | O=C(O)CCn1cc(/C=C2/NC(=S)N(c3ccccc3)C2=O)c(-c2ccccc2)n1 [Compound 65] | 8.21 | 2.59 | 27.2 | 464 | 501 | 20 | 464 | 45 | 
6 | CCc1nnc(NC(=O)c2ccc(S(=O)(=O)NCC(C)C)cc2)s1 [Compound 66] | 16.2 | 8.68 | 32.8 | 225 | 227 | 12.6 | 225 |  | 
7 | CC1CCCCC12NC(=O)N(CC(=O)OCc1cccc(F)c1)C2=O (stereo not shown) [Compound 67] | 6.4 | 14.5 | 69.8 | 142 | 162 | 10 | 142 |  | 
8 | CNc1nnc(SCC(=O)c2cc(C)n(C3CC3)c2C)s1 [Compound 68] | -11.8 | -22 | 4.46 | 220 | 222 | 12.6 | 220 |  | 
9 | CCCCNc1nnc(SCC(=O)c2c(N)n(CCC)c(=O)[nH]c2=O)s1 [Compound 69] | 0 | 16.2 | 62.8 | 84.4 | 88.1 | 3.98 | 84.4 |  | 
10 | C/C(=N\OCC(=O)OC(C)C(=O)Nc1ccc(C(N)=O)cc1)c1ccc2c(c1)OCO2 (stereo not shown) [Compound 70] | -15.5 | 4.11 | 57.2 | 89.5 | 96.1 | 4.47 | 89.5 |  | 
11 | COc1cc(C(C(=O)NC2CCCCC2)N(C(=O)c2snc(C(N)=O)c2N)c2ccc(C)cc2)ccc1O (stereo not shown) [Compound 71] | 0 | 9.63 | 58.8 | 109 | 122 | 7.94 | 109 |  | 
12 | CC1CCN(S(=O)(=O)c2ccc(S(=O)(=O)N3CCCC3)cc2)CC1 [Compound 72] | 0.91 | -2.48 | 54.5 | 132 | 136 | 8.91 | 132 |  | 
13 | CCC(CC)C(=O)Nc1c(C(=O)N2CCN(c3ccccc3)CC2)oc2ccccc12 [Compound 73] | 13.5 | 18.6 | 35.7 | 185 | 187 | 12.6 | 185 |  | 
14 | COc1ccc(CCNC(=O)c2nn(C)c3c2CS(=O)(=O)c2ccccc2-3)cc1OC [Compound 74] | -22.8 | -9.73 | 56.7 | 84.2 | 86.2 | 4.47 | 84.2 |  | 
15 | COc1ccc(Nc2ncnc3ccc(Br)cc23)cc1OC [Compound 75] | 28.1 | 40 | 79.7 | 95.9 | 98.4 | 3.98 | 95.9 |  | 
16 | CCOc1ccc2ccccc2c1C1NC(=O)N(C)C(C)=C1C(=O)OCCOC (stereo not shown) [Compound 76] | -5.81 | 5.65 | 55.1 | 97 | 106 | 6.31 | 97 |  | 
17 | Cc1ccc(NC(=O)NCc2nc3ccccc3n2C)cc1 [Compound 77] | -33.5 | -19.7 | 54.7 | 85.1 | 87.1 | 4.47 | 85.1 |  | 

Row | Structure (SMILES) | activation at 0.307 µM (48 h) [%] | activation at 1.53 µM (48 h) [%] | activation at 7.66 µM (48 h) [%] | activation at 38.3 µM (48 h) [%] | Emax [1] [%] | EC50 [µM] | Emax (read-out: Max Response [%]) [%] | Score | Score (Table 8 Compound data)
18 | COc1ccc(C(=O)ONC(=N)c2cccc(C)c2)cc1OC [Compound 78] | 10.1 | 15.5 | 69.8 | 148 | 163 | 10 | 148 |  | 
19 | CNc1cc([N+](=O)[O-])ccc1OCc1ccccc1 [Compound 79] | 1.52 | 16.2 | 57.3 | 80.2 | 84.8 | 4.47 | 80.2 |  | 
20 | COC(=O)Cc1c(O)ccn(Cc2ccc3c(c2)OCO3)c1=O [Compound 80] | -4.78 | 4.56 | 65.9 | 146 | 169 | 10 | 146 |  | 
21 | O=C(Nc1ccccc1F)c1ccc([N+](=O)[O-])s1 [Compound 81] | 1.83 | 5.12 | 24.3 | 215 | 216 | 12.6 | 215 |  | 
22 | C/N=C(\S)N1CCC(NC(=O)C(Cc2ccc(F)cc2)NC(C)=O)CC1 (stereo not shown) [Compound 82] | 0 | 23.1 | 63.7 | 84.7 | 90 | 3.16 | 84.7 |  | 
23 | CCS(=O)(=O)N1CCCC(C(=O)c2ccc(OC)cc2C)C1 (stereo not shown) [Compound 83] | -13.5 | -10.6 | 41.5 | 149 | 162 | 11.2 | 149 |  | 
24 | CCCS(=O)(=O)N1CCCC(C(=O)c2cccc(Cl)c2)C1 (stereo not shown) [Compound 84] | -5.29 | 11 | 59.7 | 102 | 114 | 6.31 | 102 |  | 
25 | CC(C)(C)c1ccc(C(=O)OCC(=O)Nc2sc3c(c2C#N)CCC3)cc1 [Compound 85] | 3.25 | 13.3 | 71.6 | 101 | 103 | 5.01 | 101 |  | 
26 | Cc1ccc(C2=C(CC(=O)O)C(=O)CC2)cc1 [Compound 86] | 10.4 | 28.9 | 57.4 | 80.4 | 94.7 | 4.47 | 80.4 |  | 
27 | CN(C)c1ccnc2sc(C(N)=O)c(N)c12 [Compound 87] | 20.9 | 26.5 | 69.1 | 86.5 | 87.8 |  | 86.5 |  | 
28 | C[C@H]1CNC(=O)c2c(C(=O)Nc3ccc(CNC(=O)OC(C)(C)C)cc3)ncn21 [Compound 88] | 12.6 | 21.8 | 50.5 | 81.8 | 98.4 | 8.91 | 81.8 |  | 
29 | CCCN(C(=O)c1ccc(S(=O)(=O)N2CCCC2)cc1)C1CCS(=O)(=O)C1 (stereo not shown) [Compound 89] | -9.99 | -0.297 | 45.6 | 74.1 | 75.3 | 5.01 | 74.1 |  | 
30 | CN(CC(=O)Nc1cccc(F)c1)C(=O)c1ccc(-c2ccc(Cl)cc2)o1 [Compound 90] | 2.83 | 8.12 | 27.2 | 146 | 146 | 11.2 | 146 |  | 
31 | Cc1ccc(S(=O)(=O)N2CN(CC3CCCO3)c3nc4ccccc4nc32)c(C)c1 (stereo not shown) [Compound 91] | -19.2 | -13.3 | 6.57 | 121 | 122 | 11.2 | 121 |  | 43
32 | COc1ccc(C(=O)N/C(=C/c2cccnc2)C(=O)N2CCN(C)CC2)cc1OC [Compound 92] | 2.57 | 13.3 | 54.9 | 75 | 77 | 4.47 | 75 |  | 
33 | COc1cccc(C(=O)NCC(=O)N2CCC3(CC2)NCCc2[nH]cnc23)c1 [Compound 93] | -3.47 | 0 | 36.3 | 102 | 114 | 11.2 | 102 |  | 

Reference: patent US9980943B2, “Methods of treating muscular dystrophy” (BOARD OF REGENTS OF THE NEVADA SYSTEM OF HIGHER EDUCATION, …, priority 2013, dated 2018)
